Reference: patent publication US6414019B1, “Synergistic mixtures of selected amino acids” (Agrogene Ltd., priority 1997, dated 2002)
≈ marks a conversion by molar mass, not a printed value. Where “and” joins values, the source holds several entries; their conditions need not be identical. Equal entries are not always repeated.

Assays:
[1] = system: Pseudoperonospora cubensis (resistance to metalaxyl); settings: in vivo
[2] = system: Peronospora tabacina R strain; experiment: Control of downy mildew in tobacco, fungal isolate R (sporulation inhibition); assay type: in vivo
[3] = system: Peronospora tabacina S strain; experiment: Control of downy mildew in tobacco, fungal isolate S (sporulation inhibition); assay type: in vivo
[4] = system: Plasmopara viticola; settings: in vivo
[5] = 50 mg/L active ingredient, fungal isolate R, Table 28
[6] = 16 mg/L active ingredient, fungal isolate R, Table 29
[7] = 62 mg/L active ingredient, fungal isolate R, Table 29
[8] = 100 mg/L active ingredient, fungal isolate R, Table 30
[9] = 200 mg/L active ingredient, fungal isolate R, Table 30
[10] = 250 mg/L active ingredient, fungal isolate R, Table 29
[11] = 400 mg/L active ingredient, fungal isolate R, Table 30
[12] = 0.5 mg/L active ingredient, tobacco, fungal isolate S (Table 31)
[13] = 5 mg/L active ingredient, tobacco, fungal isolate S (Table 31)
[14] = 50 mg/L active ingredient, tobacco, fungal isolate S (Table 31)

## COCC(=O)N(c1c(C)cccc1C)[C@H](C)C(=O)OC (single isomer, unassigned) [Metalaxyl Single Isomer]
[1]
  ED90: 844 µg/mL (≈ 3020 µM)
  Percent Disease Control: 0% and 8%

## CO/C=C(/C(=O)OC)c1ccccc1Oc1cc(Oc2ccccc2C#N)ncn1 [AZOXYSTROBINE, Azoxystrobin]
[2]; 5 mg/L active ingredient, fungal isolate R, Table 28
  Percent Disease Control: 81%
[2]; 10 mg/L active ingredient, fungal isolate R, Table 28
  Percent Disease Control: 81%
[2]; 25 mg/L active ingredient, fungal isolate R, Table 28
  Percent Disease Control: 81%
[2]; [5]
  Percent Disease Control: 93%
[2]; dose not printed (value stands in the Ratio column), fungal isolate R, Table 28
  Percent Disease Control: 13%
[2]; fungal isolate R, Table 28
  ED90: 27 µg/mL (≈ 66.9 µM)

## CC(N)CC(=O)O (stereo not drawn) [BABA, DLβ-amino-butanoic acid]
[2]; [6]
  Percent Disease Control: 3%
[2]; [5]
  Percent Disease Control: 0%
[2]; [7]
  Percent Disease Control: 27%
[2]; 100 mg/L active ingredient, fungal isolate R, Table 28
  Percent Disease Control: 13%
[2]; [8]
  Percent Disease Control: 37%
[2]; 200 mg/L active ingredient, fungal isolate R, Table 28
  Percent Disease Control: 100%
[2]; [9]
  Percent Disease Control: 62%
[2]; [10]
  Percent Disease Control: 51%
[2]; [11]
  Percent Disease Control: 100%
[3]; [12]
  Percent Disease Control: 0%
[3]; [13]
  Percent Disease Control: 27%
[3]; [14]
  Percent Disease Control: 59%
[3]; in vivo
  ED90: 78 µg/mL (≈ 756 µM)
[4]
  ED90: 38 µg/mL and 33 µg/mL and 36 µg/mL and 44 µg/mL

## CSC(=O)c1cccc2nnsc12 [BION, Acibenzolar-s-methyl]
[2]; [6]
  Percent Disease Control: 76%
[2]; [7]
  Percent Disease Control: 76%
[2]; [8]
  Percent Disease Control: 37%
[2]; [9]
  Percent Disease Control: 50%
[2]; [10]
  Percent Disease Control: 99%
[2]; [11]
  Percent Disease Control: 80%
[2]; fungal isolate R, Table 29
  ED90: 88 µg/mL (≈ 418 µM)
[2]; fungal isolate R, Table 30
  ED90: 443 µg/mL (≈ 2110 µM)
[3]; [12]
  Percent Disease Control: 54%
[3]; [13]
  Percent Disease Control: 76%
[3]; [14]
  Percent Disease Control: 85%
[3]; tobacco, fungal isolate S (Table 31)
  ED90: 52 µg/mL (≈ 247 µM)
[4]
  ED90: 6 µg/mL (≈ 28.5 µM)

## [Cu+2].[OH-].[OH-] [Cu(OH)2, copper hydroxide]
[1]
  ED90: 304 µg/mL
  Percent Disease Control: 67% and 77% and 80%

## CCNC(=O)NC(=O)/C(C#N)=N/OC [Cymoxanil]
[2]; [8]
  Percent Disease Control: 25%
[2]; [9]
  Percent Disease Control: 25%
[2]; [11]
  Percent Disease Control: 62%
[2]; in vivo
  ED90: 596 µg/mL (≈ 3010 µM)

## COc1ccc(C(=CC(=O)N2CCOCC2)c2ccc(Cl)cc2)cc1OC [DMN, DIMETHOMORPH]
[1]
  Percent Disease Control: 32% Control
[4]
  ED90: 19 µg/mL (≈ 49 µM)

## O=C1c2ccccc2C(=O)N1SC(Cl)(Cl)Cl [FOLPET, Folpet]
[1]
  ED90: 403 µg/mL (≈ 1360 µM)

## Cc1ccc(C(C)NC(=O)[C@@H](NC(=O)OC(C)C)C(C)C)cc1 (stereo partly shown) [Fencaramid]
[1]
  ED90: 19 µg/mL (≈ 59.3 µM)
  Percent Disease Control: 78% and 83% and 95% and 100%

## COCC(=O)N(c1c(C)cccc1C)[C@H](C)C(=O)OC [RIDOMILGOLD]
[2]; [6]
  Percent Disease Control: 49%
[2]; [7]
  Percent Disease Control: 37%
[2]; [8]
  Percent Disease Control: 20%
[2]; [9]
  Percent Disease Control: 35%
[2]; [10]
  Percent Disease Control: 58%
[2]; [11]
  Percent Disease Control: 42%
[2]; fungal isolate R, Table 29
  ED90: 416 µg/mL (≈ 1490 µM)
[2]; fungal isolate R, Table 30
  ED90: >1000 µg/mL

## Mancozeb
[1]
  ED90: 315 µg/mL and 167 µg/mL
